According to ChEMBL document CHEMBL1151098, “Design of pyrrolo-1,4-benzoxazine derivatives as inhibitors of 5-lipoxygenase and PAF antagonists with anthihistaminic properties” (Bioorg Med Chem Lett, 1994):
Activity calls are given as the source filed them. No cut-off for these calls is given here.

Columns and labels:
[1] = target: T1, Polyunsaturated fatty acid 5-lipoxygenase (Rattus norvegicus, UniProt P12527); assay: Inhibitory activity against 5-lipoxygenase in rat neutrophils as inhibition of A 23,187-induced LTB4 production
T1 sequence (P12527 whole entry): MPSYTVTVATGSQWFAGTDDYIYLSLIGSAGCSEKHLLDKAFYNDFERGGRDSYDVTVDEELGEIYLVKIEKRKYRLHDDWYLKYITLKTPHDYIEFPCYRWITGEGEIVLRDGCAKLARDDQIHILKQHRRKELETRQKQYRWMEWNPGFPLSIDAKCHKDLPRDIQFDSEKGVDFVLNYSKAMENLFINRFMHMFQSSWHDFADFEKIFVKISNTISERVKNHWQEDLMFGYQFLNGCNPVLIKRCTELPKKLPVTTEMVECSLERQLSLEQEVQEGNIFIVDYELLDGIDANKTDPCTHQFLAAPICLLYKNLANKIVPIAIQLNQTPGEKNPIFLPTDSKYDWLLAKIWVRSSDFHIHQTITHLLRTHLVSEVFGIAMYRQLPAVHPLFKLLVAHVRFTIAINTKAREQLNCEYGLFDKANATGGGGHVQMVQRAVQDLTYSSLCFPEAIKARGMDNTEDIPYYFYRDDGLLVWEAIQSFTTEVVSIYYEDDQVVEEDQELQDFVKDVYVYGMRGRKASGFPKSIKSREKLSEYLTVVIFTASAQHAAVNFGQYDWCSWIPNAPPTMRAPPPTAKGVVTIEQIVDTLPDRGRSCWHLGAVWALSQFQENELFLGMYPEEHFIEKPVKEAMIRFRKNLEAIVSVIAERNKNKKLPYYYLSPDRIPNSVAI

[2] = In vivo inhibitory activity of histamine induced cutaneous reaction was determined at a conc. of 2.1E-5 mol/ Kg; assay type: functional
Oryctolagus cuniculus [3] = species: Oryctolagus cuniculus; assay: Inhibitory activity of PAF-induced aggregation was determined on rabbit platelets; assay type: functional
[4] = In vivo inhibitory activity of histamine induced cutaneous reaction was determined at a conc. of 2.1E-5 mol/ Kg; Not active; assay type: functional, organism-based
Oryctolagus cuniculus [5] = species: Oryctolagus cuniculus; assay: Inhibitory activity of PAF-induced aggregation was determined on rabbit platelets; Not active at 10e-5 M; assay type: functional

| IC50 [1] | IC50 (Oryctolagus cuniculus [3]) | IC50 (Oryctolagus cuniculus [5]) | SMILES | Inhibition [2] | inhibition [4] |
| --- | --- | --- | --- | --- | --- |
| 3.1 µM | 9.9 µM |  | Cc1ccc(N2CCN(CCC3Cn4c(-c5ccc(O)cc5)c(C)c5cccc(c54)O3)CC2)nc1 (stereo not drawn) | 58% |  |
| 1.5 µM | 1.6 µM |  | Cc1ccnc(N2CCN(CCC3Cn4c(-c5cc(C)c(O)c(C)c5)c(C)c5cccc(c54)O3)CC2)c1 (stereo not drawn) | 15% |  |
| 3.3 µM | 10.2 µM |  | Cc1cccc(N2CCN(CCC3Cn4c(-c5ccc(O)cc5)c(C)c5cccc(c54)O3)CC2)n1 (stereo not drawn) | 39% |  |
| 2.3 µM | 7.2 µM |  | Cc1cccnc1N1CCN(CCC2Cn3c(-c4ccc(O)cc4)c(C)c4cccc(c43)O2)CC1 (stereo not drawn) | 57% |  |
| 3 µM | 2.7 µM |  | Cc1ccnc(N2CCN(CCC3Cn4c(-c5ccc(O)cc5)c(C)c5cccc(c54)O3)CC2)c1 (stereo not drawn) | 10% |  |
| 0.11 µM |  | Not Active | COc1ccc2[nH]c(-c3cc(C)c(O)c(C)c3)c(C)c2c1 |  | inactive |
| 7.6 µM | 2.9 µM |  | COc1cc2c3c(c1)c(C)c(-c1cc(C)c(O)c(C)c1)n3CC(CCN1CCN(c3cc(C)ccn3)CC1)O2 (stereo not drawn) | 32% |  |
| 2.2 µM | 8.1 µM |  | Cc1c(-c2ccc(O)cc2)n2c3c(cccc13)OC(CCN1CCN(c3ccccn3)CC1)C2 (stereo not drawn) | 47% |  |
| 0.29 µM | 0.45 µM |  | Cc1ccnc(N2CCN(CCC3Cn4c(-c5cc(C)c(O)c(C)c5)c(C)c5cc(O)cc(c54)O3)CC2)c1 (stereo not drawn) | 37% |  |
| 1.9 µM | 4.7 µM |  | Cc1ccnc(N2CCN(CCC3Cn4c(-c5ccc(O)c(O)c5)c(C)c5cccc(c54)O3)CC2)c1 (stereo not drawn) |  | inactive |
| 3.2 µM | 5 µM |  | COc1cc(-c2c(C)c3cccc4c3n2CC(CCN2CCN(c3cc(C)ccn3)CC2)O4)ccc1O (stereo not drawn) | 2% |  |
